Columns and labels:
[1] = test system: α1β3(Y284F) GABAAR; assay: Two-electrode voltage clamp in Xenopus laevis oocytes, Y284F mutant; format: cell-based; conditions: 3 μM 3β5αP, 1 mM GABA; α1β3(Y284F) vs WT
Procedure: The wild-type and mutant α1β3 GABAAR were expressed in oocytes from the African clawed frog (Xenopus laevis). Frogs were purchased from Xenopus 1 (Dexter, MI), and housed and cared for in a Washington University Animal Care Facility under the supervision of the Washington University Division of Comparative Medicine. Harvesting of oocytes was conducted under the Guide for the Care and Use of Laboratory Animals as adopted and promulgated by the National Institutes of Health. The animal protocol (No. 20180191) was approved by the Animal Studies Committee of Washington University in St. Louis. The oocytes were injected with a total of 12 ng cRNA. The ratio of cRNAs was 5:1 ratio (α1:β3) to minimize the expression of β3 homomeric receptors. Following injection, the oocytes were incubated in ND96 (96 mM NaCl, 2 mM KCl, 1.8 mM CaCl2, 1 mM MgCl2, 5 mM HEPES; pH 7.4) with supplements (2.5 mM Na pyruvate, 100 U/ml penicillin, 100 μg/ml streptomycin and 50 μg/ml gentamycin) at 16°C for 2 days prior to conducting electrophysiological recordings. The electrophysiological recordings were conducted at room temperature using standard two-electrode voltage clamp. The oocytes were clamped at −60 mV. The chamber (RC-1Z, Warner Instruments, Hamden, CT) was perfused with ND96 at 5–8 ml/min. […] Current traces were analyzed with Clampfit (Molecular Devices). […]

[2] = target: α1(Q242L/N408A/Y411F)β3 GABAAR (UniProt P28472+P62813, N434A/Q268L/Y437F); assay: [3H]muscimol binding to HEK cell membranes, intersubunit + α1 intrasubunit site mutant; set-up: expressed in transfected cells; host or cells: HEK293S GnTI- (ATCC CRL-3022), transient; species or system rat α1, human β3; conditions: 3 nM [3H]muscimol, 100% means no effect
Procedure: The human α1 and β3 GABAAR subunits were subcloned into pcDNA3 for molecular manipulations and cRNA synthesis. Using QuikChange Site-Directed Mutagenesis Kit (Agilent Technologies, Santa Clara, CA), a FLAG tag was first added to the α1 subunit then an 8xHis tag was added to generate the following His-FLAG tag tandem ([…]), inserted between the fourth and fifth residues of the mature peptide. The α1 and β3 subunits were then transferred into the pcDNA4/TO and pcDNA5/TO vectors (Thermo Fisher Scientific), respectively, for tetracycline inducible expression. Transient expression was done using the GABAAR subunits rat α1FLAG ([Ueno et al., 1996]) and human β3 obtained from Geoffrey White (Neurogen, Branford, CT), each were subcloned into pcDNA3 for molecular manipulations and cRNA synthesis. […]
[^3H]muscimol-binding assays were performed using a previously described method ([Chen et al., 2019]). […] Time courses of neurosteroid [^3H]muscimol binding enhancement were examined by adding 10 µM of neurosteroids (3α5αP, 3β5αP) to membranes that had been fully equilibrated with 3 nM [^3H]muscimol for 1 hr on ice; binding was then measured as a function of time at 1, 3, 10, 30, 60 min. […] Radioactivity bound to the filters was measured by liquid scintillation spectrometry using Bio-Safe II (Research Products International, Mount Prospect, IL).

Chain of α1(Q242L/N408A/Y411F)β3 GABAAR (P62813 28-455 Q268L/N434A/Y437F): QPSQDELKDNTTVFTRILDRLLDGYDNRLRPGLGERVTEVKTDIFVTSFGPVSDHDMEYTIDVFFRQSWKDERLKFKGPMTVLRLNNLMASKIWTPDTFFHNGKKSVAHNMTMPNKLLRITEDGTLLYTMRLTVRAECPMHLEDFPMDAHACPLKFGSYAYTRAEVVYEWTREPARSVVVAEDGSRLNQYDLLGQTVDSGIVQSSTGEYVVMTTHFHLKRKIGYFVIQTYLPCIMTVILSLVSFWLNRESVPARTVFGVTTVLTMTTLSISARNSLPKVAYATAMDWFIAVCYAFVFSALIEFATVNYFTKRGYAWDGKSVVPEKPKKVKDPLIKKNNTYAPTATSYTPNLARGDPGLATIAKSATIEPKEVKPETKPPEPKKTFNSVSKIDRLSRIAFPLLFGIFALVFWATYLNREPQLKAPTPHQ
Chain of α1(Q242L/N408A/Y411F)β3 GABAAR (P28472 26-473): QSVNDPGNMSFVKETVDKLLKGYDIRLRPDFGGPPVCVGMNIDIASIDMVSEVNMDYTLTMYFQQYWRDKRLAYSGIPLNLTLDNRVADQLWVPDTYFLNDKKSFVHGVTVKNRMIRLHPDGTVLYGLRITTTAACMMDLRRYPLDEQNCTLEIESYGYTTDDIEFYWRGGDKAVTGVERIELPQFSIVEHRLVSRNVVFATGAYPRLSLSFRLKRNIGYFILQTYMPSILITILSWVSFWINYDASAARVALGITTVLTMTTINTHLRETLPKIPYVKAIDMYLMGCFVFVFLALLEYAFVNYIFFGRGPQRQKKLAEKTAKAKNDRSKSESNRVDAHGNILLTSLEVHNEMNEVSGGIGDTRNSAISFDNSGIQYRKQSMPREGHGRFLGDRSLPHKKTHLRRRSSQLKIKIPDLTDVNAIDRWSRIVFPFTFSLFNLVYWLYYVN

In the case of `CC(=O)[C@H]1CC[C@H]2[C@@H]3CC[C@H]4C[C@@H](O)CC[C@]4(C)[C@H]3CC[C@]12C` [3β5αP, epi-allopregnanolone], the “Prevention of 3β5αP-enhanced desensitization by mutation” value [1] is reported as ~ 67%.

`CC(=O)[C@H]1CC[C@H]2[C@@H]3CC[C@H]4C[C@H](O)CC[C@]4(C)[C@H]3CC[C@]12C` [3α5αP, allopregnanolone] was tested, and the “Emax (% of control) of [3H]muscimol binding” value [2] was “**105.9 ± 7.3 % of control”.

Reference: article PMC7532004, “Site-specific effects of neurosteroids on GABAA receptor activation and desensitization” (eLife, 2020)
